How the values were obtained:
[1] = biological target: Mitogen-activated protein kinase 1 (Homo sapiens, UniProt P28482); assay: Inhibition of ERK2 by spectrophotometric coupled-enzyme assay
[2] = biological target: Mitogen-activated protein kinase 10 (Homo sapiens, UniProt P53779); assay: Inhibition of JNK3 at 10 nM by spectrophotometric coupled-enzyme assay
[3] = biological target: cAMP-dependent protein kinase (PKA) (Homo sapiens, UniProt P22694+P17612+P22612); assay: Inhibition of PKA; format: protein assay
[4] = biological target: T1, Receptor-type tyrosine-protein kinase FLT3 (Homo sapiens, UniProt P36888); assay: Inhibition of FLT3 kinase
T1 sequence (P36888 whole entry): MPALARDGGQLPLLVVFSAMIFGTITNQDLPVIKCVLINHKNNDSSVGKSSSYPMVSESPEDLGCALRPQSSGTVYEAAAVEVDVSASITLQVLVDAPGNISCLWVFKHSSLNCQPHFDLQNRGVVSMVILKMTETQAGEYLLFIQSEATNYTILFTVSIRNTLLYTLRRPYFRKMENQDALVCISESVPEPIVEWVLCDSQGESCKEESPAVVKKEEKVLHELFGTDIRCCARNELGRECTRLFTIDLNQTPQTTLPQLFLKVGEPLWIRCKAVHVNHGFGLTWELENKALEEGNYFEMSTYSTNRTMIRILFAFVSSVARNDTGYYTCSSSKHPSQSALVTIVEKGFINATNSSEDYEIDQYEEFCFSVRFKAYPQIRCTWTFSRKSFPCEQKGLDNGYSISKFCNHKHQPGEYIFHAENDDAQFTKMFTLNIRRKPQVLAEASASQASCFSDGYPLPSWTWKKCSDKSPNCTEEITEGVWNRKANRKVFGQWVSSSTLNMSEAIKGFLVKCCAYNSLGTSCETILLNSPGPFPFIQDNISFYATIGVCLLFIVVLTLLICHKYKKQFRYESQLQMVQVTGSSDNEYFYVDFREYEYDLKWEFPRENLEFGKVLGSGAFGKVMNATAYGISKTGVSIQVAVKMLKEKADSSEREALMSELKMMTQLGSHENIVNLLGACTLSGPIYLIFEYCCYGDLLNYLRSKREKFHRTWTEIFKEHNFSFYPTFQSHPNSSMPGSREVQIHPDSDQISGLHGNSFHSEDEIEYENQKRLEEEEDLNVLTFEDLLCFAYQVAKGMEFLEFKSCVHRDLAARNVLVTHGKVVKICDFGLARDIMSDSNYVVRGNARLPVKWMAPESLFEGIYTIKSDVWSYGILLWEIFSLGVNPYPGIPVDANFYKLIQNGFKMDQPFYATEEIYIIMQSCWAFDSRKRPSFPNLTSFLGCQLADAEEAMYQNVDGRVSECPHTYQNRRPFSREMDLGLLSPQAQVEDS

[5] = biological target: Proto-oncogene tyrosine-protein kinase Src (Homo sapiens, UniProt P12931); assay: Inhibition of SRC kinase
[6] = biological target: RAC-gamma serine/threonine-protein kinase (Homo sapiens, UniProt Q9Y243); assay: Inhibition of AKT3 kinase
[7] = biological target: Glycogen synthase kinase-3 (Homo sapiens, UniProt P49840+P49841); assay: Inhibition of GSK3; format: protein assay
[8] = biological target: Vascular endothelial growth factor receptor 2 (Homo sapiens, UniProt P35968); assay: Inhibition of KDR kinase
Aurora kinase A = biological target: T2, Aurora kinase A (Homo sapiens, UniProt O14965); assay: Inhibition of AURA kinase
T2 sequence (O14965 whole entry): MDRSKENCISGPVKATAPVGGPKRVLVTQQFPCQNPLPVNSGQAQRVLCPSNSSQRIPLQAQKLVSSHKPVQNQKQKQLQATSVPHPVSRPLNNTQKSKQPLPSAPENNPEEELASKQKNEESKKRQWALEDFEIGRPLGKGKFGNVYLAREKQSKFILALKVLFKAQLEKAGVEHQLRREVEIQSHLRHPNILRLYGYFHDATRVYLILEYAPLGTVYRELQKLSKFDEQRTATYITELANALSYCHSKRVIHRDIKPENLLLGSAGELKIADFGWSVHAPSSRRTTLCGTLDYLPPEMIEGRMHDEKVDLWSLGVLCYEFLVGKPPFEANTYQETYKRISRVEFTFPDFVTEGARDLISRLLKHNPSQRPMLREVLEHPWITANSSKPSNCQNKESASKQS

[9] = biological target: Cyclin-dependent kinase 2 (Homo sapiens, UniProt P24941); assay: Inhibition of CDK2
[10] = biological target: Dual specificity mitogen-activated protein kinase kinase 1 (Homo sapiens, UniProt Q02750); assay: Inhibition of MEK1
[11] = biological target: Mitogen-activated protein kinase 14 (Homo sapiens, UniProt Q16539); assay: Inhibition of p38 alpha kinase
COLO 205 = assay: Antiproliferative activity against Colo205 cells measured by [3H]thymidine incorporation after 48 hrs; format: functional, cell-based; settings: Homo sapiens

Mitogen-activated protein kinase 10, sequence (P53779 whole entry): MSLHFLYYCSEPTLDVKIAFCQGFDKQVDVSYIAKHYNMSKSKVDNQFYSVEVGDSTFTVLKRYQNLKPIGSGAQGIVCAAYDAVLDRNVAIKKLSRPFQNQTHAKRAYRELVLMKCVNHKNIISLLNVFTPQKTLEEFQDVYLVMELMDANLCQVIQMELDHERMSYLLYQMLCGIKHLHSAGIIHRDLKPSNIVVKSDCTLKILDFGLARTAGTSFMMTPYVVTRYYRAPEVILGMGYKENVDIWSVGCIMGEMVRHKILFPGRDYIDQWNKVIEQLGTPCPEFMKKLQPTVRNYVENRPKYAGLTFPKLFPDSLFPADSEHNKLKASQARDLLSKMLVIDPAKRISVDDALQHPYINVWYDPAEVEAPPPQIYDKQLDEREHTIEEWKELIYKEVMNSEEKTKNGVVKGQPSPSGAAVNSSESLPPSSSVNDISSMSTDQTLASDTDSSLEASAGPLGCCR
Mitogen-activated protein kinase 1, sequence (P28482 whole entry): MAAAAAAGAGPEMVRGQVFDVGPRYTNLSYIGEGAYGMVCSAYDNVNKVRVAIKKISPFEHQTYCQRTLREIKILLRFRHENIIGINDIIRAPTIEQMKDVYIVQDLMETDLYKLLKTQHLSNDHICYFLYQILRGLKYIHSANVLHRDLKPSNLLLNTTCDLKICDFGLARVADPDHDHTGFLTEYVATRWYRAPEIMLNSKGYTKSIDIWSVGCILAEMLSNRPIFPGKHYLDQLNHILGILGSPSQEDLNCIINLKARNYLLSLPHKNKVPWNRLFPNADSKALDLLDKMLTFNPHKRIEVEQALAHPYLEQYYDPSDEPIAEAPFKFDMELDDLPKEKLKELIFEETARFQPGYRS
RAC-gamma serine/threonine-protein kinase, sequence (Q9Y243 whole entry): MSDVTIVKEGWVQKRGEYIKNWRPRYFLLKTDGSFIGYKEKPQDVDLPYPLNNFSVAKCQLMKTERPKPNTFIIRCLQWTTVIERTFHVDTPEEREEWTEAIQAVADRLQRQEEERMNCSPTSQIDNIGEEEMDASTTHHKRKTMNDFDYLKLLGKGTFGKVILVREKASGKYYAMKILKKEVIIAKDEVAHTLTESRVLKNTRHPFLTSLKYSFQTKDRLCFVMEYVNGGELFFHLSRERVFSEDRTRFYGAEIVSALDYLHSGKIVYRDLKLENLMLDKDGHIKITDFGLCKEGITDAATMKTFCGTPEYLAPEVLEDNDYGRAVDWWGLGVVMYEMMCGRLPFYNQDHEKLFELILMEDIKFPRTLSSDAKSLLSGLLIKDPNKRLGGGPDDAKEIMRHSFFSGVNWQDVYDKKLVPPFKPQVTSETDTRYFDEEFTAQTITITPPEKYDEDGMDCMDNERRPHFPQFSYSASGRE
Vascular endothelial growth factor receptor 2, sequence (P35968 whole entry): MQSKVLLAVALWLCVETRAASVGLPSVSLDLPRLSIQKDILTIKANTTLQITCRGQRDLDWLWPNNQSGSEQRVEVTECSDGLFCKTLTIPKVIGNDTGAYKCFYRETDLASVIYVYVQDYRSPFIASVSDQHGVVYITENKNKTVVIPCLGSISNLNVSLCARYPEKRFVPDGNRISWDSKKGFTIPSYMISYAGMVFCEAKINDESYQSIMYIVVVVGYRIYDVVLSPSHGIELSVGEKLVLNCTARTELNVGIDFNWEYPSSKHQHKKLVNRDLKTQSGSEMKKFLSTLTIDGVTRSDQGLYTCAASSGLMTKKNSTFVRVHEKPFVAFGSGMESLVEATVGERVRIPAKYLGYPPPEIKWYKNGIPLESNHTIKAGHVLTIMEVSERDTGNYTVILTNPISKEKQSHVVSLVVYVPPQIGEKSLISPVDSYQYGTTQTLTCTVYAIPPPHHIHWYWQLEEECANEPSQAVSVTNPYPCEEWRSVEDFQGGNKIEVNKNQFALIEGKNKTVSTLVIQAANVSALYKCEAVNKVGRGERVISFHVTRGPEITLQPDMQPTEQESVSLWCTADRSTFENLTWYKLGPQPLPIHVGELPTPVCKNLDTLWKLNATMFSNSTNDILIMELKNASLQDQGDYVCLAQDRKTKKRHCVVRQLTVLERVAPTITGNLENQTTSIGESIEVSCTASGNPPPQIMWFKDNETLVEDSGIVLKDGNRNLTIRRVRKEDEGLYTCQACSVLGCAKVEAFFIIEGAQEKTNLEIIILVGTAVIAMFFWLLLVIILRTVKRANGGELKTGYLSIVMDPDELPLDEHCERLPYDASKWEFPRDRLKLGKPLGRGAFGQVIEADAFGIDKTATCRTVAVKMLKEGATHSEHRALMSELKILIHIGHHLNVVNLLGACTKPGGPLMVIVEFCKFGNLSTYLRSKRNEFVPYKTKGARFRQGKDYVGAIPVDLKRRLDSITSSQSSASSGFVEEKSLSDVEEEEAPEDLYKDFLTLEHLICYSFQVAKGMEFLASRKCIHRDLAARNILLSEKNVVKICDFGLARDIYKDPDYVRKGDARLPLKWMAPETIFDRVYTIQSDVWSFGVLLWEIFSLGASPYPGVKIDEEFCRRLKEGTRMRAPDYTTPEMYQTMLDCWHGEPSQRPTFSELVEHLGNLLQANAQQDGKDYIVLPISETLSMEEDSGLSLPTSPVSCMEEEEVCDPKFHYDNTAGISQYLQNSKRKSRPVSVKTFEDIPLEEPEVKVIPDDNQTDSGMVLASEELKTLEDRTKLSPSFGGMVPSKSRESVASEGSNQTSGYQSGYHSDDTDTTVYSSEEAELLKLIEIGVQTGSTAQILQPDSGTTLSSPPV
Proto-oncogene tyrosine-protein kinase Src, sequence (P12931 2-536 limits assumed): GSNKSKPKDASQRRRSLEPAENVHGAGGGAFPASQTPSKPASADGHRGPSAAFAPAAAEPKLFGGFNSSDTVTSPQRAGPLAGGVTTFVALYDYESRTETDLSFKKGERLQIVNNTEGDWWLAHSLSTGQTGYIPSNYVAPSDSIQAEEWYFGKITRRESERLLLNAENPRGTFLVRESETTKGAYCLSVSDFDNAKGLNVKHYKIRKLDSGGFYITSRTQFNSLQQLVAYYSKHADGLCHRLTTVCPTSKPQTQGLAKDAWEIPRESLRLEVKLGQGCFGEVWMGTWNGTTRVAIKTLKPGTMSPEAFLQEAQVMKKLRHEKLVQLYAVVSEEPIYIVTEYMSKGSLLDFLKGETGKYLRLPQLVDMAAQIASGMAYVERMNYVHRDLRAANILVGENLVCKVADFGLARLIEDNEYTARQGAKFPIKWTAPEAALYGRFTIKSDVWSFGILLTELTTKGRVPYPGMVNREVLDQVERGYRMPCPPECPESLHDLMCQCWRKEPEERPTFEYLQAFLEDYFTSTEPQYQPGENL
Mitogen-activated protein kinase 14, sequence (Q16539 whole entry): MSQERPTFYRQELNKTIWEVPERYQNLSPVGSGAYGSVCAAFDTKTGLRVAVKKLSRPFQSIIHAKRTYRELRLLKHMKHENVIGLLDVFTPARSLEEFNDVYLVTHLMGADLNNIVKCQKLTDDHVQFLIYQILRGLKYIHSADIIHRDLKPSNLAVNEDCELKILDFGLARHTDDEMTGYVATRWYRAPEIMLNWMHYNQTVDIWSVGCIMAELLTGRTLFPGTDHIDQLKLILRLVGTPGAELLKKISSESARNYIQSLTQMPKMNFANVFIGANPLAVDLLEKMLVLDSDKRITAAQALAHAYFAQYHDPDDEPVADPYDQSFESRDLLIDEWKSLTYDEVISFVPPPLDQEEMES
Dual specificity mitogen-activated protein kinase kinase 1, sequence (Q02750 whole entry): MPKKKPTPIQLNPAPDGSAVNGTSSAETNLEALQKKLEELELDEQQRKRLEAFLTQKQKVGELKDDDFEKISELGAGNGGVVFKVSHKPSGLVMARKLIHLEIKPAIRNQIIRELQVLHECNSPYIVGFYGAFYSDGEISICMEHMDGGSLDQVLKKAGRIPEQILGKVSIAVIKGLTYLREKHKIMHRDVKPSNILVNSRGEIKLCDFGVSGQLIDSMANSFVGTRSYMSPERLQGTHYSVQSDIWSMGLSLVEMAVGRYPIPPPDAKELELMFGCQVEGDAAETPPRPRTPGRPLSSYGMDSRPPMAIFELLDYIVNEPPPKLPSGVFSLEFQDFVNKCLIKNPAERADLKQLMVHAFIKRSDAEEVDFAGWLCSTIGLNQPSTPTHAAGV

| Structure (SMILES) | Ki [1] | Ki [2] | also measured |
| --- | --- | --- | --- |
| C[C@@H](NC(=O)c1cc(-c2n[nH]cc2-c2cccc(Cl)c2)c[nH]1)c1ccccc1 | 100 nM | 3100 nM |  |
| C[C@H](NC(=O)c1cc(-c2n[nH]cc2-c2cccc(Cl)c2)c[nH]1)c1ccccc1 | 660 nM | > 4000 nM |  |
| O=C(N[C@@H](CO)c1ccc(F)c(Cl)c1)c1cc(-c2n[nH]cc2-c2cccc(Cl)c2)c[nH]1 | 150 nM | > 4000 nM |  |
| O=C(NC(CO)c1ccc(Cl)cc1)c1cc(-c2n[nH]cc2-c2cccc(Cl)c2)c[nH]1 (stereo not given) | 14 nM | 2500 nM |  |
| CCN1CCCC1CNC(=O)c1cc(-c2n[nH]cc2-c2cccc(Cl)c2)c[nH]1 (stereo not given) | > 10000 nM | > 4000 nM |  |
| O=C(NC(CO)c1ccc(C(F)(F)F)cc1)c1cc(-c2n[nH]cc2-c2cccc(Cl)c2)c[nH]1 (stereo not given) | 44 nM | 2700 nM |  |
| O=C(NC1c2ccccc2CC1O)c1cc(-c2[nH]ncc2-c2cccc(Cl)c2)c[nH]1 (stereo not given) | 4000 nM | 3200 nM |  |
| CN(C)C(=O)c1cc(-c2n[nH]cc2-c2ccccc2)c[nH]1 |  | > 4000 nM |  |
| O=C(N[C@H](CO)c1ccc(F)c(Cl)c1)c1cc(-c2n[nH]cc2-c2cccc(Cl)c2)c[nH]1 |  | > 4000 nM | Ki [3]: 390 nM; Ki [4]: 750 nM; Ki [5]: 1100 nM; Ki [6]: 1800 nM; Ki [7]: 3300 nM; Ki [8]: 3900 nM; Ki (Aurora kinase A): > 4000 nM; Ki [9]: > 4000 nM; Ki [10]: > 4000 nM; Ki [11]: > 4000 nM; IC50 (COLO 205): 540 nM |
| O=C(NCCc1cccnc1)c1cc(-c2[nH]ncc2-c2cccc(Cl)c2)c[nH]1 | 330 nM | > 4000 nM |  |
| O=C(c1cc(-c2[nH]ncc2-c2cccc(Cl)c2)c[nH]1)N1CCCC1 | 200 nM | 1800 nM |  |
| O=C(NC(CO)c1ccccc1F)c1cc(-c2[nH]ncc2-c2cccc(Cl)c2)c[nH]1 (stereo not given) | 240 nM | 3100 nM |  |
| O=C(NOCc1ccccc1)c1cc(-c2[nH]ncc2-c2cccc(Cl)c2)c[nH]1 |  | 2900 nM |  |
| CN(Cc1ccccc1)C(=O)c1cc(-c2[nH]ncc2-c2cccc(Cl)c2)c[nH]1 | 440 nM | > 4000 nM |  |
| O=C(c1cc(-c2[nH]ncc2-c2cccc(Cl)c2)c[nH]1)N1CCc2ccccc2C1 | 510 nM | > 4000 nM |  |
| CCN(C)C(=O)c1cc(-c2n[nH]cc2-c2cccc(Cl)c2)c[nH]1 |  | > 4000 nM |  |
| O=C(N[C@H](C(=O)O)c1ccccc1)c1cc(-c2n[nH]cc2-c2cccc(Cl)c2)c[nH]1 | > 5000 nM | > 4000 nM |  |
| O=C(NCC1CCCO1)c1cc(-c2[nH]ncc2-c2cccc(Cl)c2)c[nH]1 (stereo not given) |  | 2700 nM |  |
| NC(=O)[C@@H](NC(=O)c1cc(-c2[nH]ncc2-c2cccc(Cl)c2)c[nH]1)c1ccccc1 | 510 nM | 3300 nM |  |
| CNC(=O)[C@@H](NC(=O)c1cc(-c2[nH]ncc2-c2cccc(Cl)c2)c[nH]1)c1ccccc1 | 2300 nM | 3900 nM |  |
| O=C(NC(CO)c1ccc(F)c(Cl)c1)c1cc(-c2[nH]ncc2-c2cccc(Cl)c2)c[nH]1 (stereo not given) | 6 nM |  |  |
| O=C(N[C@H](CO)c1ccccc1)c1cc(-c2[nH]ncc2-c2cccc(Cl)c2)c[nH]1 |  | 2800 nM |  |
| COc1ccc(CNC(=O)c2cc(-c3n[nH]cc3-c3cccc(Cl)c3)c[nH]2)cc1 | 490 nM | 840 nM |  |
| O=C(NC(CO)c1ccc(F)cc1)c1cc(-c2n[nH]cc2-c2cccc(Cl)c2)c[nH]1 (stereo not given) | 63 nM | > 4000 nM |  |
| O=C(NCc1ccc(F)c(F)c1)c1cc(-c2n[nH]cc2-c2cccc(Cl)c2)c[nH]1 | 40 nM | 790 nM |  |
| O=C(NC(CO)c1cccc(F)c1)c1cc(-c2[nH]ncc2-c2cccc(Cl)c2)c[nH]1 (stereo not given) | 24 nM | 3000 nM |  |
| O=C(NC(CO)c1ccc(F)c(F)c1)c1cc(-c2n[nH]cc2-c2cccc(Cl)c2)c[nH]1 (stereo not given) | 22 nM | 2800 nM |  |
| O=C(NC(CO)c1cc(Cl)cc(Cl)c1)c1cc(-c2n[nH]cc2-c2cccc(Cl)c2)c[nH]1 (stereo not given) | 7 nM | 3400 nM |  |

Source: ChEMBL document CHEMBL1142871, “Flipped out: structure-guided design of selective pyrazolylpyrrole ERK inhibitors” (J Med Chem, 2007)
